The values below are quoted from earlier work in paper PMC4007625, “A phase I study of AST1306, a novel irreversible EGFR and HER2 kinase inhibitor, in patients with advanced solid tumors” (Journal of Hematology & Oncology, 2014).

The subject of this series is advanced/metastatic gastric cancer. On the set-up: method as in PMID 21415234. To be noted: single agent, advanced/metastatic gastric cancer patients; cited from earlier work.

For the compound `CS(=O)(=O)CCNCc1ccc(-c2ccc3ncnc(Nc4ccc(OCc5cccc(F)c5)c(Cl)c4)c3c2)o1` [lapatinib], the response rate was 9%.
